Converted amounts (≈) assume the structure as drawn. A value given as a limit tells only on which side of the number the result lay.

For the data set the following is noted: buffer; pH 7.4; 200.0 µM.
`Cc1ccc(CNC(=O)COC(=O)C2CCC2)cc1`: the kinetic solubility is greater than 39.2 µg/mL. Under `CN(C)CC(O)CN(c1ccccc1)c1ccccc1` (stereo unspecified) stands greater than 40.6 µg/mL; under `CC(C)(C)C(=O)Nc1ccc(/C=C/C(=O)c2ccco2)cc1`, 28.9 µg/mL (≈ 97.2 µM).

As to `CCOc1ccc(NCc2cc3cc(OC)ccc3[nH]c2=O)cc1`, the kinetic solubility was 2.1 µg/mL (≈ 6.47 µM). `COc1ccc(NC(=S)NCCNC(C)=O)cc1` registered a kinetic solubility of 35.4 µg/mL (≈ 132 µM). Take `CCc1nnc(NC(=O)c2cc(C)nc3ccccc23)s1`: the kinetic solubility is greater than 44.8 µg/mL. Take `COCC(=O)NC1CC(C)(C)Cc2c1cnn2-c1ccc(F)cc1` (stereo unspecified): the solubility (kinetic) was greater than 49.7 µg/mL.

The molecule `N[C@@H](Cc1cc(Br)c(O)c(Br)c1)C(=O)O` displayed a kinetic solubility greater than 50.8 µg/mL. On to `COc1ccc(N2CC(C(=O)NC3CCCCC3)CC2=O)cc1` (stereo unspecified), for which the solubility (kinetic) amounted to 25.3 µg/mL (≈ 80 µM).

Regarding `CN(C)CCN=Cc1c(O)n(Cc2ccc3c(c2)OCO3)c(=O)c2ccccc12`, the kinetic solubility turned out to be 16.3 µg/mL (≈ 41.4 µM). `Cc1cccc(C)c1NC(=O)c1ccc(N2CCCC2=O)cc1` yielded a solubility (kinetic) greater than 46.3 µg/mL. The molecule `O=C(Nc1ccccc1O)c1csc2c1CCCC2` came in with a solubility (kinetic) of 2.2 µg/mL (≈ 8.05 µM). Molecule `COc1ccc(NC(=O)/C=N/O)cc1` yielded a kinetic solubility greater than 29.1 µg/mL. Under `CCOc1ccc(CCNC(=O)Nc2ccccc2)cc1OCC` stands 5.9 µg/mL (≈ 18 µM). Under `CCOC(=O)c1cc2cc([N+](=O)[O-])ccc2oc1=O` stands 18.9 µg/mL (≈ 71.8 µM); under `Cc1ccnc(SCC(=O)NC2CC2)n1`, greater than 33.5 µg/mL. With `CCCc1c(C)nc2c(OC)cccc2c1SCC(=O)O` the figure was 42.5 µg/mL (≈ 139 µM); with `CCCCC(=O)Nc1ccc(NC(=O)c2cnccn2)cn1`, greater than 44.9 µg/mL. In the case of `Cc1cccc(C(=O)OC(C)CN2CCCC2)c1.Cl` (stereo unspecified), the solubility (kinetic) was greater than 42.6 µg/mL. With `CN(C(=O)c1ccc2nccnc2c1)C1CCCCC1` the figure was greater than 40.4 µg/mL. Regarding `Cc1cc(=O)n(Cc2ccc(OC(C)C)cc2)c(=S)[nH]1`, the kinetic solubility was found to be 13.8 µg/mL (≈ 47.5 µM). Molecule `N#C/C(=C\c1ccc(F)cc1F)S(=O)(=O)c1ccccn1` showed a kinetic solubility of 42.4 µg/mL (≈ 138 µM). Compared with the last molecule, the solubility kinetic is about 3.1-fold higher. In the case of `CC(NC(=O)CCNC(=O)c1ccco1)c1ccccc1` (stereo unspecified), the kinetic solubility was greater than 42.9 µg/mL. `COc1ccc(NC(=O)/C(C#N)=C/c2ccc[nH]2)c(OC)c1` returned a solubility (kinetic) of 0.3 µg/mL (≈ 1.01 µM).

`CCn1c(O)c(C=NC2CCCC(C)C2C)sc1=S` (stereo unspecified) had a solubility (kinetic) of 4.3 µg/mL (≈ 14.4 µM). Compared with the last molecule, the solubility kinetic is about 14-fold higher. With `COc1ccc(N=c2ssnc2Cl)cc1`, the solubility (kinetic) came out at 0.4 µg/mL (≈ 1.55 µM). Under `O=C(COC(=O)c1ccccn1)Nc1ccc2c(c1)OCCO2` stands 44.4 µg/mL (≈ 141 µM); under `CC(=O)Nc1ccc(/C=C/C(=O)c2ccc3c(c2)OCCO3)cc1`, 5.2 µg/mL (≈ 16.1 µM). The molecule `CC(=O)Nc1ccc(NC(=O)CCOc2ccccc2C)cc1` gave a kinetic solubility of 21.1 µg/mL (≈ 67.5 µM). For the molecule `CC(=O)CSc1nc(-c2ccccc2)c(-c2ccccc2)o1`, the solubility (kinetic) was 3.1 µg/mL (≈ 10 µM). This solubility kinetic lies about 6.8-fold lower than the previous one. Under `Cc1cc(C(=O)OCC(=O)NC2(C#N)CCCCC2)c(C)o1` stands greater than 45.7 µg/mL; under `O=Cc1c(-c2ccc(F)cc2)nc2ccccn12`, 2.5 µg/mL (≈ 10.4 µM). Under `O=C(COC(=O)c1ccc(Br)o1)NCC1CCCCC1` stands greater than 51.6 µg/mL; under `CN(Cc1ccccc1)C(=O)COC(=O)c1ccc(Br)c(S(=O)(=O)N2CCOCC2)c1`, 36.7 µg/mL (≈ 71.8 µM); under `O=C(N/N=C/c1ccccc1O)c1ccncc1`, greater than 36.2 µg/mL. Under `Nc1nc(NCc2ccco2)nc(Nc2ccc(F)cc2)c1[N+](=O)[O-]` stands 0.1 µg/mL (≈ 0.29 µM).

On to `CNC(=S)Nc1cccc(-c2cnc3ccccc3n2)c1`, for which the kinetic solubility stood at 43.7 µg/mL (≈ 148 µM). For `CC(C)(C)C(=O)NC(=S)Nc1cccc(C(=O)O)c1`, the solubility (kinetic) is greater than 42.1 µg/mL. Under `Cc1ccc(C(=O)Nc2ccc3ccccc3c2)cc1` stands less than 0.6 µg/mL; under `O=[N+]([O-])c1cc(S(=O)(=O)NCCN2CCOCC2)ccc1Cl`, greater than 52.5 µg/mL; under `Cc1ccc(OCC(=O)NC(=S)Nc2ccc(Br)cn2)cc1`, 0.5 µg/mL (≈ 1.31 µM). For the molecule `CC(C)CC(=O)N/N=C/c1c(N)n(C)c(=O)n(C)c1=O`, the solubility (kinetic) was greater than 42.2 µg/mL. With `CCCC1Cc2nc(Cl)c(C#N)cc2CO1` (stereo unspecified) the figure was greater than 35.5 µg/mL; with `CSc1ccccc1NC(=O)CSc1nncs1`, greater than 44.6 µg/mL; with `O=c1cc(Cl)[nH]c(=O)n1Cc1ccc(F)cc1`, 34.9 µg/mL (≈ 137 µM). For the molecule `COc1ccc(Cl)cc1NS(=O)(=O)c1cn(C)nc1C`, the solubility (kinetic) is greater than 47.4 µg/mL. As to `Cc1csc(Nc2ccc(C(=O)O)cc2)n1`, the kinetic solubility is greater than 35.1 µg/mL.

As for `O=C(CSc1ncn[nH]1)NCc1ccc2c(c1)OCO2`, the kinetic solubility is greater than 43.8 µg/mL.

Molecule `CCCn1cccc(C(=O)Nc2ccc(OC)cc2)c1=O` displayed a solubility (kinetic) greater than 42.9 µg/mL.

The molecule `Cl.NCc1ccc2[nH]c(=O)[nH]c2c1` gave a kinetic solubility greater than 29.9 µg/mL.

Regarding `CCC(C)NS(=O)(=O)c1cc2c3c(c1)CCN3C(=O)CC2` (stereo unspecified), the solubility (kinetic) was greater than 46.3 µg/mL.

`CSc1nc2ccc(NC(=O)c3ccccn3)cc2s1` had a kinetic solubility of 0.5 µg/mL (≈ 1.66 µM). Take `O=C(/C=C/c1ccc(Cl)cc1)N1CCOCC1`: the kinetic solubility was 33.3 µg/mL (≈ 132 µM).

Turning to `CC(C)N(Cc1ccccc1)C(=S)Nc1ccc(F)cc1`, the solubility (kinetic) worked out at 45.1 µg/mL (≈ 149 µM). Molecule `NS(=O)(=O)c1ccc(CCNC(=O)CNC(=O)Cc2ccccc2)cc1` displayed a solubility (kinetic) greater than 56.3 µg/mL. With `CCOc1cc(N2CCOCC2)c(OCC)cc1NC(=O)c1cccc(S(=O)(=O)N2CCOCC2)c1` the figure was greater than 77.9 µg/mL; with `Cc1nn(-c2ccc(F)cc2)c(C)c1/C=C/C(=O)N1CCNC(=O)C1`, greater than 51.4 µg/mL. Under `Cc1ccc(NC(=O)Cc2ncon2)cc1Cl` stands greater than 37.8 µg/mL; under `O=C(Nc1ccc(Cl)cc1)C1CCN(C(=O)c2cccs2)CC1`, 12.9 µg/mL (≈ 37 µM). Under `Cc1cnc(NC(=O)COc2ccc3c(c2)CCC3)s1` stands 1.2 µg/mL (≈ 4.16 µM). For `CCN(CC)c1ccc(/C=C2\SC(=O)N(C(C)C)C2=O)o1`, the kinetic solubility came out at 4.1 µg/mL (≈ 13.3 µM).

Molecule `COc1ccccc1C(=O)NC(C)c1ccc(-n2ccnc2)cc1` (stereo unspecified) registered a kinetic solubility greater than 48.2 µg/mL. With `COc1ccc(NC(=O)C23CC4CC(CC(Cl)(C4)C2)C3)cc1S(=O)(=O)N1CCOCC1` the figure was 3.3 µg/mL (≈ 7.04 µM). With `COc1cccc(C(=O)Nc2cccc(NC(=O)c3ccccc3Cl)c2)c1` the figure was 7.4 µg/mL (≈ 19.4 µM). Under `NS(=O)(=O)c1cccc(NC(=O)CN2CCCc3ccccc32)c1` stands greater than 51.8 µg/mL; under `O=c1nc2n(c3cccc(Cl)c13)CCCCC2`, 31 µg/mL (≈ 125 µM). `Cc1cc(OCC(=O)N2CCC(C(=O)O)CC2)c2c(C)cc(=O)oc2c1` returned a kinetic solubility greater than 53.9 µg/mL. Under `C/C=C/c1ccc(OCCCCN2CCC(C)CC2)c(OC)c1` stands 33.9 µg/mL (≈ 107 µM); under `Cc1ccc(C(=O)NC(C(=O)NC2CCCC2)c2ccccc2)cc1` (stereo unspecified), 4.1 µg/mL (≈ 12.2 µM); under `O=C1Nc2ccccc2Sc2ccccc21`, 1.2 µg/mL (≈ 5.28 µM). Under `CCOC(=O)c1cn2ccc(C)cc2n1` stands greater than 30.6 µg/mL; under `CCC(C)NC(=O)Cn1nc(Cc2ccncc2)c2ccccc2c1=O` (stereo unspecified), greater than 52.6 µg/mL; under `COc1cccc(-c2nc(N3CCCC3)c3ccccc3n2)c1O`, less than 0.2 µg/mL. Turning to `O=C(COC(=O)COc1ccccc1)Nc1ccc2c(c1)OCCO2`, the kinetic solubility was found to be 15.3 µg/mL (≈ 44.6 µM). Under `Cc1cc(Cl)ccc1OC(C)C(=O)OCC(=O)c1ccc[nH]1` (stereo unspecified) stands 4 µg/mL (≈ 12.4 µM); under `COc1cc(C)c(S(=O)(=O)NOCc2ccccc2)c(C)c1C`, 5.5 µg/mL (≈ 16.4 µM). For the molecule `CC(=O)N(CCS(=O)(=O)c1ccc(Cl)cc1)Cc1cccs1`, the kinetic solubility was determined as 39.9 µg/mL (≈ 111 µM). Compared with the last molecule, the solubility kinetic is about 7.3-fold higher.

Turning to `CCCn1c(=N)c(C#N)cc2c(=O)n3cccc(C)c3nc21`, the solubility (kinetic) turned out to be 2.3 µg/mL (≈ 7.84 µM). Molecule `COc1ccc(S(=O)(=O)Nc2ccccn2)cc1C` yielded a kinetic solubility greater than 41.7 µg/mL. `Cc1cc(C=O)c(C)n1C(C)C` showed a solubility (kinetic) of 23 µg/mL (≈ 139 µM).

In turn, `Cc1cccc(CN2CCSCC2)c1` displayed a solubility (kinetic) of 7 µg/mL (≈ 33.8 µM). Regarding `CCn1c(SCc2ccc(OC)c(F)c2)nc2ccccc2c1=O`, the solubility (kinetic) was less than 0.4 µg/mL.

As to `O=C(Nc1ccc(F)cc1)c1nc[nH]c1C(=O)O`, the solubility (kinetic) was greater than 37.4 µg/mL. Under `O=C(NCCN1CCOCC1)c1cccc(Br)c1` stands 46.4 µg/mL (≈ 148 µM); under `CNC(=O)COC(=O)/C=C/c1ccco1`, greater than 31.4 µg/mL. Under `O=C(CSc1ccc(F)cc1)Nc1ccc(C2SCCS2)cc1` stands less than 0.8 µg/mL. On to `COc1ccc(OC)c(N/C=C/C(=O)c2ccccc2)c1`, for which the solubility (kinetic) was determined as 2.1 µg/mL (≈ 7.41 µM). Under `N#Cc1ccc(Oc2cnccn2)cc1` stands greater than 29.6 µg/mL; under `COC(=O)c1ccccc1NC(=O)CN1CCc2ccccc2C1`, 10.7 µg/mL (≈ 33 µM).

The molecule `Cn1c(/C=C/c2ccc(Cl)cc2)nc2ccccc2c1=O` came in with a solubility (kinetic) of less than 0.3 µg/mL. For the molecule `CN(C)c1cccc(C(=O)N/C=C/n2cnc3cc(C(F)(F)F)ccc32)c1`, the solubility (kinetic) stood at 0.4 µg/mL (≈ 1.07 µM). With `N#Cc1ccccc1OCC(=O)Nc1ccc2c(c1)OCCO2` the figure was 19.7 µg/mL (≈ 63.5 µM); with `NC(=O)CSc1nccn1Cc1ccccc1`, greater than 37.1 µg/mL. `COc1ccc(C(=O)NC(=S)N(C)C2CCCCC2)cc1`: the kinetic solubility was 5.5 µg/mL (≈ 17.9 µM). Under `CCOc1ccccc1NC(=O)NC1Cc2ccccc2C1` stands less than 0.3 µg/mL.

Take `CC(=O)c1ccc(S(=O)(=O)N2CCNCC2)cc1.Cl`: the solubility (kinetic) was 45.5 µg/mL.

Molecule `COCCNC(=O)Cn1cc(C(=O)c2ccccc2F)c2ccccc21` yielded a kinetic solubility of 17.9 µg/mL (≈ 50.5 µM). Regarding `S=C(NCCNC(=S)Nc1ccccc1)Nc1ccccc1`, the solubility (kinetic) stood at 9.4 µg/mL (≈ 28.4 µM). On to `COC(=O)COc1c(/C=C\c2nc(O)c([N+](=O)[O-])c(=O)[nH]2)cccc1OC`, for which the solubility (kinetic) was greater than 56.6 µg/mL. Molecule `Cc1cc(C(=O)NNC(=O)C(CCC(N)=O)NS(=O)(=O)c2ccc(Cl)cc2)c(C)o1` (stereo unspecified) gave a kinetic solubility greater than 68.5 µg/mL. In turn, `COc1ccc(NC(=O)CSc2ccccc2)c([N+](=O)[O-])c1` gave a kinetic solubility of 3.4 µg/mL (≈ 10.7 µM). The molecule `Cc1cccc(C)c1NC(=O)CN1C(=O)COc2ccccc21` showed a kinetic solubility of 6 µg/mL (≈ 19.3 µM). Under `CCC(C(=O)Nc1cccnc1Cl)c1ccccc1` (stereo unspecified) stands 30.2 µg/mL (≈ 110 µM); under `CN(C(=O)COC(=O)CNC(=O)c1sc2ccccc2c1Cl)C1CCS(=O)(=O)C1` (stereo unspecified), greater than 68.8 µg/mL; under `CCOc1ccc(N/C=C/C(=O)c2ccccc2)cc1`, 0.8 µg/mL (≈ 2.99 µM).

The molecule `CCC(C(=O)NCc1ccc(C)cc1)c1ccccc1` (stereo unspecified) returned a solubility (kinetic) of 20.2 µg/mL (≈ 75.6 µM).

For the origin of these results see PubChem BioAssay AID1996.
